Experimental data: US10765114B2, “4-amino-6-(pyridyl and 2-substitutedphenyl)-picolinates and 6-amino-2-(pyridyl and 2-substitutedphenyl)-pyrimidine-4-carboxylates and their use as herbicides” (Dow AgroSciences LLC, priority 2013, dated 2020)

System: Key Broadleaf Weed and Crop Species
Assay: Post-Emergent Test II (Table 5)
Type: in vivo
Details: Abutilon theophrasti, post-emergence, 336 h, ABUTH: velvetleaf (Abutilon theophrasti), application rate 70 (kg ai/ha; footnote: g ai/ha), read-out: Visual Growth Reduction (%) 14 Days After Application ABUTH
Procedure, shortened: (§1)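 Visual injury ratings (0 = no injury, 100 = complete kill) taken 14 days after treatment, relative to untreated controls. Compounds, in an acetone/DMSO aqueous carrier with crop oil and surfactant, were applied by track sprayer at 187 L/ha, in a twofold dilution series from the top rate, to plants at the first to second true-leaf stage.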

Question: For COC(=O)c1nc(-c2ccc(C(F)(F)F)nc2)c(C)c(N)c1Cl [Compound 32], which pest or weed control at 70 g/ha is on record?
Answer: 45 to 59%

Same assay, conditions: Abutilon theophrasti, post-emergence, 336 h, ABUTH: velvetleaf (Abutilon theophrasti), application rate 140 (kg ai/ha; footnote: g ai/ha), read-out: Visual Growth Reduction (%) 14 Days After Application ABUTH

Question: Which pest or weed control at 140 g/ha does the source give for COC(=O)c1nc(-c2ccc(C(F)(F)F)nc2)c(C)c(N)c1Cl [Compound 32] here?
Answer: 85 to 94%

Same assay, conditions: Amaranthus retroflexus, post-emergence, 336 h, AMARE: redroot pigweed (Amaranthus retroflexus), application rate 70 (kg ai/ha; footnote: g ai/ha), read-out: Visual Growth Reduction (%) 14 Days After Application AMARE

Question: For COC(=O)c1nc(-c2ccc(C(F)(F)F)nc2)c(C)c(N)c1Cl [Compound 32], which pest or weed control at 70 g/ha is on record?
Answer: 0 to 29%

Same assay, conditions: Amaranthus retroflexus, post-emergence, 336 h, AMARE: redroot pigweed (Amaranthus retroflexus), application rate 140 (kg ai/ha; footnote: g ai/ha), read-out: Visual Growth Reduction (%) 14 Days After Application AMARE

Question: For COC(=O)c1nc(-c2ccc(C(F)(F)F)nc2)c(C)c(N)c1Cl [Compound 32], which pest or weed control at 140 g/ha is on record?
Answer: 0 to 29%

Same assay, conditions: Brassica napus, post-emergence, 336 h, BRSSS: oilseed rape, canola (Brassica napus), application rate 70 (kg ai/ha; footnote: g ai/ha), read-out: Visual Growth Reduction (%) 14 Days After Application BRSSS

Question: For COC(=O)c1nc(-c2ccc(C(F)(F)F)nc2)c(C)c(N)c1Cl [Compound 32], which pest or weed control at 70 g/ha is on record?
Answer: 60 to 74%

Same assay, conditions: Brassica napus, post-emergence, 336 h, BRSSS: oilseed rape, canola (Brassica napus), application rate 140 (kg ai/ha; footnote: g ai/ha), read-out: Visual Growth Reduction (%) 14 Days After Application BRSSS

Question: Which pest or weed control at 140 g/ha does the source give for COC(=O)c1nc(-c2ccc(C(F)(F)F)nc2)c(C)c(N)c1Cl [Compound 32] here?
Answer: 75 to 84%

Same assay, conditions: Chenopodium album, post-emergence, 336 h, CHEAL: lambsquarters (Chenopodium album), application rate 70 (kg ai/ha; footnote: g ai/ha), read-out: Visual Growth Reduction (%) 14 Days After Application CHEAL

Question: For COC(=O)c1nc(-c2ccc(C(F)(F)F)nc2)c(C)c(N)c1Cl [Compound 32], which pest or weed control at 70 g/ha is on record?
Answer: 85 to 94%

Same assay, conditions: Chenopodium album, post-emergence, 336 h, CHEAL: lambsquarters (Chenopodium album), application rate 140 (kg ai/ha; footnote: g ai/ha), read-out: Visual Growth Reduction (%) 14 Days After Application CHEAL

Question: With COC(=O)c1nc(-c2ccc(C(F)(F)F)nc2)c(C)c(N)c1Cl [Compound 32] as the molecule, how does the pest or weed control at 140 g/ha read?
Answer: 85 to 94%

Same assay, conditions: Euphorbia heterophylla, post-emergence, 336 h, EPHHL: wild poinsettia (Euphorbia heterophylla), application rate 70 (kg ai/ha; footnote: g ai/ha), read-out: Visual Growth Reduction (%) 14 Days After Application EPHHL

Question: Which pest or weed control at 70 g/ha does the source give for COC(=O)c1nc(-c2ccc(C(F)(F)F)nc2)c(C)c(N)c1Cl [Compound 32] here?
Answer: 0 to 29%

Same assay, conditions: Euphorbia heterophylla, post-emergence, 336 h, EPHHL: wild poinsettia (Euphorbia heterophylla), application rate 140 (kg ai/ha; footnote: g ai/ha), read-out: Visual Growth Reduction (%) 14 Days After Application EPHHL

Question: With COC(=O)c1nc(-c2ccc(C(F)(F)F)nc2)c(C)c(N)c1Cl [Compound 32] as the molecule, how does the pest or weed control at 140 g/ha read?
Answer: 0 to 29%

Same assay, conditions: Helianthus annuus, post-emergence, 336 h, HELAN: sunflower (Helianthus annuus), application rate 70 (kg ai/ha; footnote: g ai/ha), read-out: Visual Growth Reduction (%) 14 Days After Application HELAN

Question: With COC(=O)c1nc(-c2ccc(C(F)(F)F)nc2)c(C)c(N)c1Cl [Compound 32] as the molecule, how does the pest or weed control at 70 g/ha read?
Answer: 95 to 100%

Same assay, conditions: Helianthus annuus, post-emergence, 336 h, HELAN: sunflower (Helianthus annuus), application rate 140 (kg ai/ha; footnote: g ai/ha), read-out: Visual Growth Reduction (%) 14 Days After Application HELAN

Question: For COC(=O)c1nc(-c2ccc(C(F)(F)F)nc2)c(C)c(N)c1Cl [Compound 32], which pest or weed control at 140 g/ha is on record?
Answer: 95 to 100%

Same assay, conditions: Viola tricolor, post-emergence, 336 h, VIOTR: wild pansy (Viola tricolor), application rate 70 (kg ai/ha; footnote: g ai/ha), read-out: Visual Growth Reduction (%) 14 Days After Application VIOTR

Question: With COC(=O)c1nc(-c2ccc(C(F)(F)F)nc2)c(C)c(N)c1Cl [Compound 32] as the molecule, how does the pest or weed control at 70 g/ha read?
Answer: 45 to 59%

Same assay, conditions: Viola tricolor, post-emergence, 336 h, VIOTR: wild pansy (Viola tricolor), application rate 140 (kg ai/ha; footnote: g ai/ha), read-out: Visual Growth Reduction (%) 14 Days After Application VIOTR

Question: With COC(=O)c1nc(-c2ccc(C(F)(F)F)nc2)c(C)c(N)c1Cl [Compound 32] as the molecule, how does the pest or weed control at 140 g/ha read?
Answer: 75 to 84%

System: Key Grass and Sedge Weeds as well as Grass Crops
Assay: Post-Emergent Test II (Table 6)
Type: in vivo
Details: post-emergence, 336 h, CYPSS, 70 g ai/ha, 14 days after application, read-out: Visual Growth Reduction (%) 14 Days After Application CYPSS
Procedure, shortened: as §1

Question: Which pest or weed control at 70 g/ha does the source give for COC(=O)c1nc(-c2ccc(C(F)(F)F)nc2)c(C)c(N)c1Cl [Compound 32] here?
Answer: 95 to 100%

Same assay, conditions: post-emergence, 336 h, CYPSS, 140 g ai/ha, 14 days after application, read-out: Visual Growth Reduction (%) 14 Days After Application CYPSS

Question: For COC(=O)c1nc(-c2ccc(C(F)(F)F)nc2)c(C)c(N)c1Cl [Compound 32], which pest or weed control at 140 g/ha is on record?
Answer: 95 to 100%

Same assay, conditions: post-emergence, 336 h, DIGSA: crabgrass (Digitaria sanguinalis), 70 g ai/ha, 14 days after application, read-out: Visual Growth Reduction (%) 14 Days After Application DIGSA

Question: With COC(=O)c1nc(-c2ccc(C(F)(F)F)nc2)c(C)c(N)c1Cl [Compound 32] as the molecule, how does the pest or weed control at 70 g/ha read?
Answer: 75 to 84%

Same assay, conditions: post-emergence, 336 h, DIGSA: crabgrass (Digitaria sanguinalis), 140 g ai/ha, 14 days after application, read-out: Visual Growth Reduction (%) 14 Days After Application DIGSA

Question: For COC(=O)c1nc(-c2ccc(C(F)(F)F)nc2)c(C)c(N)c1Cl [Compound 32], which pest or weed control at 140 g/ha is on record?
Answer: 75 to 84%

Same assay, conditions: post-emergence, 336 h, ECHSS, 70 g ai/ha, 14 days after application, read-out: Visual Growth Reduction (%) 14 Days After Application ECHSS

Question: For COC(=O)c1nc(-c2ccc(C(F)(F)F)nc2)c(C)c(N)c1Cl [Compound 32], which pest or weed control at 70 g/ha is on record?
Answer: 85 to 94%

Same assay, conditions: post-emergence, 336 h, ECHSS, 140 g ai/ha, 14 days after application, read-out: Visual Growth Reduction (%) 14 Days After Application ECHSS

Question: With COC(=O)c1nc(-c2ccc(C(F)(F)F)nc2)c(C)c(N)c1Cl [Compound 32] as the molecule, how does the pest or weed control at 140 g/ha read?
Answer: 85 to 94%

Same assay, conditions: post-emergence, 336 h, ORYSS (crop), 70 g ai/ha, 14 days after application, read-out: Visual Growth Reduction (%) 14 Days After Application ORYSS

Question: For COC(=O)c1nc(-c2ccc(C(F)(F)F)nc2)c(C)c(N)c1Cl [Compound 32], which pest or weed control at 70 g/ha is on record?
Answer: 0 to 29%

Same assay, conditions: post-emergence, 336 h, ORYSS (crop), 140 g ai/ha, 14 days after application, read-out: Visual Growth Reduction (%) 14 Days After Application ORYSS

Question: With COC(=O)c1nc(-c2ccc(C(F)(F)F)nc2)c(C)c(N)c1Cl [Compound 32] as the molecule, how does the pest or weed control at 140 g/ha read?
Answer: 0 to 29%

Same assay, conditions: post-emergence, 336 h, SETFA: giant foxtail (Setaria faberi), 70 g ai/ha, 14 days after application, read-out: Visual Growth Reduction (%) 14 Days After Application SETFA

Question: With COC(=O)c1nc(-c2ccc(C(F)(F)F)nc2)c(C)c(N)c1Cl [Compound 32] as the molecule, how does the pest or weed control at 70 g/ha read?
Answer: 85 to 94%

Same assay, conditions: post-emergence, 336 h, SETFA: giant foxtail (Setaria faberi), 140 g ai/ha, 14 days after application, read-out: Visual Growth Reduction (%) 14 Days After Application SETFA

Question: With COC(=O)c1nc(-c2ccc(C(F)(F)F)nc2)c(C)c(N)c1Cl [Compound 32] as the molecule, how does the pest or weed control at 140 g/ha read?
Answer: 85 to 94%

Same assay, conditions: post-emergence, 336 h, SORVU: grain sorghum (Sorghum vulgare), 70 g ai/ha, 14 days after application, read-out: Visual Growth Reduction (%) 14 Days After Application SORVU

Question: Which pest or weed control at 70 g/ha does the source give for COC(=O)c1nc(-c2ccc(C(F)(F)F)nc2)c(C)c(N)c1Cl [Compound 32] here?
Answer: 60 to 74%

Same assay, conditions: post-emergence, 336 h, SORVU: grain sorghum (Sorghum vulgare), 140 g ai/ha, 14 days after application, read-out: Visual Growth Reduction (%) 14 Days After Application SORVU

Question: For COC(=O)c1nc(-c2ccc(C(F)(F)F)nc2)c(C)c(N)c1Cl [Compound 32], which pest or weed control at 140 g/ha is on record?
Answer: 75 to 84%

Same assay, conditions: post-emergence, 336 h, TRZSS (crop), 70 g ai/ha, 14 days after application, read-out: Visual Growth Reduction (%) 14 Days After Application TRZSS

Question: For COC(=O)c1nc(-c2ccc(C(F)(F)F)nc2)c(C)c(N)c1Cl [Compound 32], which pest or weed control at 70 g/ha is on record?
Answer: 60 to 74%

Same assay, conditions: post-emergence, 336 h, TRZSS (crop), 140 g ai/ha, 14 days after application, read-out: Visual Growth Reduction (%) 14 Days After Application TRZSS

Question: Which pest or weed control at 140 g/ha does the source give for COC(=O)c1nc(-c2ccc(C(F)(F)F)nc2)c(C)c(N)c1Cl [Compound 32] here?
Answer: 60 to 74%

Same assay, conditions: post-emergence, 336 h, ZEAMX: maize, corn (Zea mays), 70 g ai/ha, 14 days after application, read-out: Visual Growth Reduction (%) 14 Days After Application ZEAMX

Question: With COC(=O)c1nc(-c2ccc(C(F)(F)F)nc2)c(C)c(N)c1Cl [Compound 32] as the molecule, how does the pest or weed control at 70 g/ha read?
Answer: 60 to 74%

Same assay, conditions: post-emergence, 336 h, ZEAMX: maize, corn (Zea mays), 140 g ai/ha, 14 days after application, read-out: Visual Growth Reduction (%) 14 Days After Application ZEAMX

Question: Which pest or weed control at 140 g/ha does the source give for COC(=O)c1nc(-c2ccc(C(F)(F)F)nc2)c(C)c(N)c1Cl [Compound 32] here?
Answer: 60 to 74%

System: not given
Assay: not given
Details: not given

Question: With COC(=O)c1nc(-c2ccc(C(F)(F)F)nc2)c(C)c(N)c1Cl [Compound 32] as the molecule, how does the melting point read?
Answer: 145 °C
